From ChEMBL document CHEMBL5543111, “Uncovering PROTAC Sensitivity and Efficacy by Multidimensional Proteome Profiling: A Case for STAT3” (J Med Chem, 2024)
Activity calls are given as the source filed them. The rule behind the calls is not given here.

Columns and labels:
[1] = Toxicity in CB-17/SCID mouse bearing late stage of TPPRC assessed as effect on body weight at 25 to 50 mg/kg, iv measured after 21 days; type: organism-based; conditions: in vivo, 504 h, dose 25-50 mg/kg, time 21 day
[2] = biological target: T1, Protein cereblon/Signal transducer and activator of transcription 3 (Homo sapiens) (UniProt P40763+Q96SW2); assay: PROTAC activity at CRBN/STAT3 in human KARPAS-299 cells assessed as induction of STAT3 degradation at 5 uM measured after 3 hrs; type: cell-based
[3] = biological target: T1, Protein cereblon/Signal transducer and activator of transcription 3 (Homo sapiens); assay: PROTAC activity at CRBN/STAT3 in human MOLM16 cells assessed as induction of STAT3 degradation at 5 uM measured after 3 hrs; type: cell-based
[4] = biological target: T1, Protein cereblon/Signal transducer and activator of transcription 3 (Homo sapiens); assay: PROTAC activity at CRBN/STAT3 in human SUPM2 cells assessed as induction of STAT3 degradation at 5 uM measured after 3 hrs; type: cell-based
[5] = biological target: T1, Protein cereblon/Signal transducer and activator of transcription 3 (Homo sapiens); assay: PROTAC activity at CRBN/STAT3 in human DB cells assessed as induction of STAT3 degradation at 5 uM measured after 3 hrs; type: cell-based
[6] = biological target: T1, Protein cereblon/Signal transducer and activator of transcription 3 (Homo sapiens); assay: PROTAC activity at CRBN/STAT3 in human SU-DHL-4 cells assessed as induction of STAT3 degradation at 5 uM measured after 3 hrs; type: cell-based
[7] = biological target: T1, Protein cereblon/Signal transducer and activator of transcription 3 (Homo sapiens); assay: PROTAC activity at CRBN/STAT3 in human Pfeiffer cells assessed as induction of STAT3 degradation at 5 uM measured after 3 hrs; type: cell-based
[8] = biological target: T2, Protein cereblon/Signal transducer and activator of transcription 1-alpha/beta (Homo sapiens) (UniProt P42224+Q96SW2); assay: PROTAC activity at CRBN/STAT1 in human KARPAS-299 cells assessed as induction of STAT1 degradation at 5 to 10 uM measured after 24 hrs; type: cell-based; conditions: dose 5-10 µM
[9] = biological target: T2, Protein cereblon/Signal transducer and activator of transcription 1-alpha/beta (Homo sapiens); assay: PROTAC activity at CRBN/STAT1 in human DB cells assessed as induction of STAT1 degradation at 5 to 10 uM measured after 24 hrs; type: cell-based; conditions: dose 5-10 µM
[10] = biological target: T3, Protein cereblon/Signal transducer and activator of transcription 2 (Homo sapiens) (UniProt Q96SW2+P52630); assay: PROTAC activity at CRBN/STAT2 in human KARPAS-299 cells assessed as induction of STAT2 degradation at 5 to 10 uM measured after 24 hrs; type: cell-based; conditions: dose 5-10 µM
[11] = biological target: T3, Protein cereblon/Signal transducer and activator of transcription 2 (Homo sapiens); assay: PROTAC activity at CRBN/STAT2 in human DB cells assessed as induction of STAT2 degradation at 5 to 10 uM measured after 24 hrs; type: cell-based; conditions: dose 5-10 µM
[12] = biological target: T4, Protein cereblon/Signal transducer and activator of transcription 5A (Homo sapiens) (UniProt P42229+Q96SW2); assay: PROTAC activity at CRBN/STAT5A in human KARPAS-299 cells assessed as induction of STAT5A degradation at 5 to 10 uM measured after 24 hrs; type: cell-based; conditions: dose 5-10 µM
[13] = biological target: T4, Protein cereblon/Signal transducer and activator of transcription 5A (Homo sapiens); assay: PROTAC activity at CRBN/STAT5A in human DB cells assessed as induction of STAT5A degradation at 5 to 10 uM measured after 24 hrs; type: cell-based; conditions: dose 5-10 µM
[14] = biological target: T5, Protein cereblon/Signal transducer and activator of transcription 5B (Homo sapiens) (UniProt P51692+Q96SW2); assay: PROTAC activity at CRBN/STAT5B in human KARPAS-299 cells assessed as induction of STAT5B degradation at 5 to 10 uM measured after 24 hrs; type: cell-based; conditions: dose 5-10 µM
[15] = biological target: T5, Protein cereblon/Signal transducer and activator of transcription 5B (Homo sapiens); assay: PROTAC activity at CRBN/STAT5B in human DB cells assessed as induction of STAT5B degradation at 5 to 10 uM measured after 24 hrs; type: cell-based; conditions: dose 5-10 µM
[16] = biological target: T6, Protein cereblon/Signal transducer and activator of transcription 6 (Homo sapiens) (UniProt P42226+Q96SW2); assay: PROTAC activity at CRBN/STAT6 in human KARPAS-299 cells assessed as induction of STAT6 degradation at 5 to 10 uM measured after 24 hrs; type: cell-based; conditions: dose 5-10 µM
[17] = biological target: T6, Protein cereblon/Signal transducer and activator of transcription 6 (Homo sapiens); assay: PROTAC activity at CRBN/STAT6 in human DB cells assessed as induction of STAT6 degradation at 5 to 10 uM measured after 24 hrs; type: cell-based; conditions: dose 5-10 µM
[18] = biological target: T1, Protein cereblon/Signal transducer and activator of transcription 3 (Homo sapiens); assay: PROTAC activity at CRBN/STAT3 in human KARPAS-299 cells assessed as induction of STAT3 degradation at 5 to 10 uM measured after 24 hrs; type: cell-based; conditions: dose 5-10 µM
[19] = biological target: T1, Protein cereblon/Signal transducer and activator of transcription 3 (Homo sapiens); assay: PROTAC activity at CRBN/STAT3 in human DB cells assessed as induction of STAT3 degradation at 5 to 10 uM measured after 24 hrs; type: cell-based; conditions: dose 5-10 µM
[20] = biological target: T1, Protein cereblon/Signal transducer and activator of transcription 3 (Homo sapiens); assay: PROTAC activity at CRBN/STAT3 in human KARPAS-299 cells assessed as fold change in STAT3 degradation at 5 uM measured after 24 hrs; type: cell-based
[21] = biological target: T1, Protein cereblon/Signal transducer and activator of transcription 3 (Homo sapiens); assay: PROTAC activity at CRBN/STAT3 in human DB cells assessed as fold change in STAT3 degradation at 5 uM measured after 24 hrs; type: cell-based
[22] = biological target: T1, Protein cereblon/Signal transducer and activator of transcription 3 (Homo sapiens); assay: PROTAC activity at CRBN/STAT3 in human SU-DHL-4 cells assessed as fold change in STAT3 degradation at 5 uM measured after 24 hrs; type: cell-based
[23] = biological target: T1, Protein cereblon/Signal transducer and activator of transcription 3 (Homo sapiens); assay: PROTAC activity at CRBN/STAT3 in human Pfeiffer cells assessed as fold change in STAT3 degradation at 5 uM measured after 24 hrs; type: cell-based
[24] = biological target: T1, Protein cereblon/Signal transducer and activator of transcription 3 (Homo sapiens); assay: PROTAC activity at CRBN/STAT3 in human MOLM16 cells assessed as fold change in STAT3 degradation at 5 uM measured after 24 hrs; type: cell-based
[25] = biological target: T1, Protein cereblon/Signal transducer and activator of transcription 3 (Homo sapiens); assay: PROTAC activity at CRBN/STAT3 in human SUPM2 cells assessed as fold change in STAT3 degradation at 5 uM measured after 24 hrs; type: cell-based
KARPAS-299 [26] = assay: Downregulation of PCLAF expression in human KARPAS-299 at 5 to 10 uM measured after 24 hrs; type: functional, cell-based; conditions: dose 5-10 µM
MOLM-16 [27] = assay: Downregulation of PCLAF expression in human MOLM16 at 5 to 10 uM measured after 24 hrs; type: functional, cell-based; conditions: dose 5-10 µM
SUP-M2 [28] = assay: Downregulation of PCLAF expression in human SUPM2 at 5 to 10 uM measured after 24 hrs; type: functional, cell-based; conditions: dose 5-10 µM
DB [29] = assay: Downregulation of PCLAF expression in human DB at 5 to 10 uM measured after 24 hrs; type: functional, cell-based; conditions: dose 5-10 µM
SUD4 [30] = assay: Downregulation of PCLAF expression in human SU-DHL-4 at 5 to 10 uM measured after 24 hrs; type: functional, cell-based; conditions: dose 5-10 µM
Pfeiffer [31] = assay: Downregulation of PCLAF expression in human Pfeiffer at 5 to 10 uM measured after 24 hrs; type: functional, cell-based; conditions: dose 5-10 µM
KARPAS-299 [32] = assay: Downregulation of NOP53 expression in human KARPAS-299 at 5 to 10 uM measured after 24 hrs; type: functional, cell-based; conditions: dose 5-10 µM
MOLM-16 [33] = assay: Downregulation of NOP53 expression in human MOLM16 at 5 to 10 uM measured after 24 hrs; type: functional, cell-based; conditions: dose 5-10 µM
SUP-M2 [34] = assay: Downregulation of NOP53 expression in human SUPM2 at 5 to 10 uM measured after 24 hrs; type: functional, cell-based; conditions: dose 5-10 µM
DB [35] = assay: Downregulation of NOP53 expression in human DB at 5 to 10 uM measured after 24 hrs; type: functional, cell-based; conditions: dose 5-10 µM
SUD4 [36] = assay: Downregulation of NOP53 expression in human SU-DHL-4 at 5 to 10 uM measured after 24 hrs; type: functional, cell-based; conditions: dose 5-10 µM
Pfeiffer [37] = assay: Downregulation of NOP53 expression in human Pfeiffer at 5 to 10 uM measured after 24 hrs; type: functional, cell-based; conditions: dose 5-10 µM
Pfeiffer [38] = assay: Cytotoxicity against human Pfeiffer cells harbouring STAT1 assessed as reduction in cell viability measured after 3 days by CCK- method; type: functional, cell-based; conditions: time 3.0 day
Pfeiffer [39] = assay: Cytotoxicity against human Pfeiffer cells harbouring STAT3 assessed as reduction in cell viability at 2 uM measured after 3 days by CCK- method; type: functional, cell-based; conditions: time 3.0 day
Pfeiffer [40] = assay: Downregulation of STAT3 expression in patient derived STAT3 high expressing human Pfeiffer cell organoids at 2 uM by Western blot analysis; type: functional, cell-based
Pfeiffer [41] = assay: Downregulation of STAT1 expression in patient derived STAT1 high expressing human Pfeiffer cell organoids at 2 uM by Western blot analysis; type: functional, cell-based
Pfeiffer [42] = assay: Downregulation of STAT3 expression in patient derived STAT3 low expressing human Pfeiffer cell organoids at 2 uM by Western blot analysis; type: functional, cell-based
Pfeiffer [43] = assay: Antitumor activity against human Pfeiffer cells xenografted in CB-17/SCID mouse model bearing late stage of TPPRC assessed as inhibition of tumor growth at 25 to 50 mg/kg, iv measured upto 21 days; type: functional, organism-based; conditions: dose 25-50 mg/kg, time <= 21.0 day
Mus musculus [44] = assay: In vivo PROTAC activity at human Pfeiffer cells xenografted in CB-17/SCID mouse model bearing late stage of TPPRC assessed as degradation of STAT3 at administered as IV dose; type: functional, organism-based; conditions: dose 25-50 mg/kg
Mus musculus [45] = assay: In vivo PROTAC activity at CRBN/STAT1 in human Pfeiffer cells xenografted in CB-17/SCID mouse model bearing middle stage of TPPRC assessed as upregulation of STAT1 by measuring fold change; type: functional
Mus musculus [46] = assay: In vivo PROTAC activity at CRBN/STAT1 in human Pfeiffer cells xenografted in CB-17/SCID mouse model bearing last stage of TPPRC assessed as upregulation of STAT1 by measuring fold change; type: functional

T1 sequence (P40763 2-770 limits assumed): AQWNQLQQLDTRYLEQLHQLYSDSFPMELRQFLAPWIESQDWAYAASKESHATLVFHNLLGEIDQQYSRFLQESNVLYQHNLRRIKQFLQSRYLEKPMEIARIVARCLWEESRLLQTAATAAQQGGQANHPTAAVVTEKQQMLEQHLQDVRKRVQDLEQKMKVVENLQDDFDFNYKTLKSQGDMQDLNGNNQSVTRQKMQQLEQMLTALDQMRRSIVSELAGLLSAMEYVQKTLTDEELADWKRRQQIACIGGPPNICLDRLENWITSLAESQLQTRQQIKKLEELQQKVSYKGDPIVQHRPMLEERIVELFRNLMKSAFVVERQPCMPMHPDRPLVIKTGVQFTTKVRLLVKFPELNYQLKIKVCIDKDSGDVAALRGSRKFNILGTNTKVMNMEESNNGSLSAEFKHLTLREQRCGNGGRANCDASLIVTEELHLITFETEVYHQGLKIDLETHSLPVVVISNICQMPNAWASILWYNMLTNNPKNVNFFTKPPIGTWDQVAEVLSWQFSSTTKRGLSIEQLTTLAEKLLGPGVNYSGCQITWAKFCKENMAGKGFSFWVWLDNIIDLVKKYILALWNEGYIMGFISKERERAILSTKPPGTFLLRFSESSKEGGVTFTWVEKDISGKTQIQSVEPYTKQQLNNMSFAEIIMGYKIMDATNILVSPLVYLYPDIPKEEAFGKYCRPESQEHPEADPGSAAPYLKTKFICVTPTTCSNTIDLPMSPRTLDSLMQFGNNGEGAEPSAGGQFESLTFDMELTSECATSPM
T1 sequence (Q96SW2 whole entry partner): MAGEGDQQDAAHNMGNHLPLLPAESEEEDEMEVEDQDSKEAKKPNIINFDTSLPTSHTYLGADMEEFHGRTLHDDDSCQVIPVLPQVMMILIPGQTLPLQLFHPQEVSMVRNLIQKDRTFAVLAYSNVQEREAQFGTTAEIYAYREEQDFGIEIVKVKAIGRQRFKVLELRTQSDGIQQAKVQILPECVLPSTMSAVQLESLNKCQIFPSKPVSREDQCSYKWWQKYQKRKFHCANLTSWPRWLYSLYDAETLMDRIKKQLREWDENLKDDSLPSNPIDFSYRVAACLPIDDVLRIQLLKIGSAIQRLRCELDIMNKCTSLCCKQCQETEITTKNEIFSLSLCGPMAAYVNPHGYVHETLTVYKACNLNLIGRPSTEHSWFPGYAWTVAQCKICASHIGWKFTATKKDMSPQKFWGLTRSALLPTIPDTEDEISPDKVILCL
T4 sequence (P42229 whole entry, looked up): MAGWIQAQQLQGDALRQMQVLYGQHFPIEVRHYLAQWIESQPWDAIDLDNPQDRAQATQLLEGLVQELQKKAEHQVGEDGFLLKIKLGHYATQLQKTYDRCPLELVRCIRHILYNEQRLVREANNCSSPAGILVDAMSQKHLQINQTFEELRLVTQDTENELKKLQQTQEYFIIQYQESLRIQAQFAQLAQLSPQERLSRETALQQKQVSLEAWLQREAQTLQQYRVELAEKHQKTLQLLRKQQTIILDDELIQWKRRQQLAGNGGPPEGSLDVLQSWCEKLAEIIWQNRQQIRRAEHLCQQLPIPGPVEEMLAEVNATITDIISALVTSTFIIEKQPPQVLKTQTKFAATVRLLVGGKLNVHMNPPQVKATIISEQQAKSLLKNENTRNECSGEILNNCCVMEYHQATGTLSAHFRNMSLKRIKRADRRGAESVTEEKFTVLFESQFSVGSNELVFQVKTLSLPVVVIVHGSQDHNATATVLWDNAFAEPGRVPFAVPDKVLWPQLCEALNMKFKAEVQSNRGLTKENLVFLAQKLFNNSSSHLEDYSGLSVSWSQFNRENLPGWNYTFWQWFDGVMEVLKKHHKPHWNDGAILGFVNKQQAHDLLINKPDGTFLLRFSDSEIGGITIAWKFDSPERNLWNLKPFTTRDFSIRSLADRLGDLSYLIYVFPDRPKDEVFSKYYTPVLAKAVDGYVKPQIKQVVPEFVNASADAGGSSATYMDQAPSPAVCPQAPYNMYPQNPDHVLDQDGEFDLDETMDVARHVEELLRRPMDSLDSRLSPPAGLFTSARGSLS
T4 sequence (Q96SW2 whole entry, looked up): as the sequence (Q96SW2 whole entry partner) above
T6 sequence (P42226 2-847 limits assumed): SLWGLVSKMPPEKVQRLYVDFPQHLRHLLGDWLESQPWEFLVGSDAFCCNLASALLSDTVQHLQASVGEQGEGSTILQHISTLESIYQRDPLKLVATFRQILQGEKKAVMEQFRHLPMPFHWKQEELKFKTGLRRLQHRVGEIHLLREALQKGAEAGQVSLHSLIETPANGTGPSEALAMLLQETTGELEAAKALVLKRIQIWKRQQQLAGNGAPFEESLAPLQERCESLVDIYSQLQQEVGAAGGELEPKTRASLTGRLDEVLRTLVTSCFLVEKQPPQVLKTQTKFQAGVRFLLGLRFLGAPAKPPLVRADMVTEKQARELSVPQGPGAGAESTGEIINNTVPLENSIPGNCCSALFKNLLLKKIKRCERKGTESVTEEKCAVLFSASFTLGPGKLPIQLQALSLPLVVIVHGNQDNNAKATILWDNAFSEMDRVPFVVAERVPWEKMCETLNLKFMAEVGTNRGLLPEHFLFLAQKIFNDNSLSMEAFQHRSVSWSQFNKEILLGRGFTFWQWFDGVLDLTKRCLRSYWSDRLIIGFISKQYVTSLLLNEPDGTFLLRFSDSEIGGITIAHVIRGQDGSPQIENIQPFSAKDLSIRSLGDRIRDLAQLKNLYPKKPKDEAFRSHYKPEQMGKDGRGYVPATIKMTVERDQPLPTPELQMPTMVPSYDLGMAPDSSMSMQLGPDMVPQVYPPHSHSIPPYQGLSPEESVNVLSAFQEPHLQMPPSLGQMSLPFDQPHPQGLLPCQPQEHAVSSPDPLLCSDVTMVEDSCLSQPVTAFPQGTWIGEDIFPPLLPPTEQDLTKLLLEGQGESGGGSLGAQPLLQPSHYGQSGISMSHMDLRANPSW
T6 sequence (Q96SW2 whole entry partner): as the sequence (Q96SW2 whole entry partner) above
T3 sequence (P52630 whole entry, looked up): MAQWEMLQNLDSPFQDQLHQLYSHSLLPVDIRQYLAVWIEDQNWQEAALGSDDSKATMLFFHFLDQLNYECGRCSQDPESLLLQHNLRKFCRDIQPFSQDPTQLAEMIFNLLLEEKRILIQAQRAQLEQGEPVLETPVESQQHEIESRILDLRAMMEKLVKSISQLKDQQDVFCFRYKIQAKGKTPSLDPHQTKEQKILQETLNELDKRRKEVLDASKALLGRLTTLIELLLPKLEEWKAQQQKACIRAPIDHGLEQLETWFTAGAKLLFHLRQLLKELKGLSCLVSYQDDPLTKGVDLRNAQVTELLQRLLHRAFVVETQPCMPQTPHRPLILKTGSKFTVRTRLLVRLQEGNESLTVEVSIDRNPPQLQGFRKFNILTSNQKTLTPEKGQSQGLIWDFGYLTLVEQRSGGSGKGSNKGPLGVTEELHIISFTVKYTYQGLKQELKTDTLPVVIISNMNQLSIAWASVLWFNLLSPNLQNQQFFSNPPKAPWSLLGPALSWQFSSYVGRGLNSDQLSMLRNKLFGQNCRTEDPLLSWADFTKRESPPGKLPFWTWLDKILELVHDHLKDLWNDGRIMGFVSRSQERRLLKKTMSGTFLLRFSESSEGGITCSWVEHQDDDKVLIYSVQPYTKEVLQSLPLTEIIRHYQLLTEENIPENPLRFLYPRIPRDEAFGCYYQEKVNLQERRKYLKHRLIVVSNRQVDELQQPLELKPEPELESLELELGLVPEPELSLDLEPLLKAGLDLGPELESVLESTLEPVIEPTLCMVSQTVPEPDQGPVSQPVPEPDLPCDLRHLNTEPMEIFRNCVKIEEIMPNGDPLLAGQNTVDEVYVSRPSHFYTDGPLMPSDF
T3 sequence (Q96SW2 whole entry, looked up): as the sequence (Q96SW2 whole entry partner) above
T5 sequence (P51692 whole entry, looked up): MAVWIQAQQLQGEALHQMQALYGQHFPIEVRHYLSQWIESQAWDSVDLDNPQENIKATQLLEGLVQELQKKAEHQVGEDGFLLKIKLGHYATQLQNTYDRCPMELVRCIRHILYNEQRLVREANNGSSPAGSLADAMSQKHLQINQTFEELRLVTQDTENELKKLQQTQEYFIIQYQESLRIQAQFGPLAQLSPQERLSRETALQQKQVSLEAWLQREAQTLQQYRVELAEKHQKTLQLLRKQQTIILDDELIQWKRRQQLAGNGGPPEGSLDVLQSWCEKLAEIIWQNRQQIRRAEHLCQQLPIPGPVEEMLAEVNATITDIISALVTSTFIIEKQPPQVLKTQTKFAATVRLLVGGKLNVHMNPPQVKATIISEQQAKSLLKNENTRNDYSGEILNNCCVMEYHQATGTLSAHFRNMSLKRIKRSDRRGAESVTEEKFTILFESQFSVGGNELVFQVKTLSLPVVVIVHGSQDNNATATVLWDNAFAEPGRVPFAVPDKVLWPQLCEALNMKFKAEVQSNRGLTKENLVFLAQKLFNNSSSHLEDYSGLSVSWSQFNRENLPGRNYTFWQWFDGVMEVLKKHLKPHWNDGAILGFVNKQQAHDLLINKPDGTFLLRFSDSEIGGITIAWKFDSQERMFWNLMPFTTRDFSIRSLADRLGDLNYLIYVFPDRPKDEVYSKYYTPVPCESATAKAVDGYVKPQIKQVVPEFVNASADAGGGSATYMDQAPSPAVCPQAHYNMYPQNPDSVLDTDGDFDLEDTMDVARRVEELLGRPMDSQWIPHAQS
T5 sequence (Q96SW2 whole entry, looked up): as the sequence (Q96SW2 whole entry partner) above

Structure (SMILES): NC(=O)CC[C@H](NC(=O)[C@@H]1CC[C@@H]2CCN(C(=O)CCCCCC#Cc3cccc4c3CN(C3CCC(=O)NC3=O)C4=O)C[C@H](NC(=O)c3cc4cc(C(F)(F)P(=O)(O)O)ccc4[nH]3)C(=O)N21)C(=O)NC(c1ccccc1)c1ccccc1 (stereo partly specified)
- Activity [1]: Non-Toxic
- Activity [2]: Active
- Activity [3]: Active
- Activity [4]: Active
- Activity [5]: Active
- Activity [6]: Active
- Activity [7]: Active
- Activity [8]: inactive
- Activity [9]: inactive
- Activity [10]: inactive
- Activity [11]: inactive
- Activity [12]: inactive
- Activity [13]: inactive
- Activity [14]: inactive
- Activity [15]: inactive
- Activity [16]: inactive
- Activity [17]: inactive
- Activity [18]: Active
- Activity [19]: Active
- fold change (FC) [20]: 0.66
- fold change (FC) [21]: 0.66
- fold change (FC) [22]: 0.66
- fold change (FC) [23]: 0.66
- fold change (FC) [24]: 0.66
- fold change (FC) [25]: 0.66
- Activity (KARPAS-299 [26]): Active
- Activity (MOLM-16 [27]): Active
- Activity (SUP-M2 [28]): Active
- Activity (DB [29]): inactive
- Activity (SUD4 [30]): inactive
- Activity (Pfeiffer [31]): inactive
- Activity (KARPAS-299 [32]): Active
- Activity (MOLM-16 [33]): Active
- Activity (SUP-M2 [34]): Active
- Activity (DB [35]): inactive
- Activity (SUD4 [36]): inactive
- Activity (Pfeiffer [37]): inactive
- Activity (Pfeiffer [38]): Active
- Activity (Pfeiffer [39]): Active
- Activity (Pfeiffer [40]): Active
- Activity (Pfeiffer [41]): Active
- Activity (Pfeiffer [42]): Active
- Activity (Pfeiffer [43]): Active
- Activity (Mus musculus [44]): Dose-Dependent Effect
- fold change (FC) (Mus musculus [45]): >3.5
- fold change (FC) (Mus musculus [46]): >3.5
